Reference: patent US20240025884A1 (Dong-A ST Co., Ltd., priority 2022, published 2024)

Biological target: GCN2 (Homo sapiens (Human), UniProt Q9P2K8)
Experiment: GCN2 Biochemical Assay (TR-FRET, GFP-eIF2S1 substrate phosphorylation)
Conditions: read-out: IC50 (GCN2 Inhibitory Activity)
Method in brief: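 In-house GCN2 (1.6 nM 2× stock) phosphorylates GFP-eIF2S1 (50 nM 2× stock) with ATP (0.2 mM 2× stock) and tRNA, pH 7.5, 70 min at room temperature; 10-point 3.16-fold compound series. TR-FRET detection with Tb-anti-phospho antibody, 2–3 h, Ex 340/Em 490/520 nm; artifact plate spiked with phospho-substrate.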

Chain of GCN2 (Q9P2K8 whole entry): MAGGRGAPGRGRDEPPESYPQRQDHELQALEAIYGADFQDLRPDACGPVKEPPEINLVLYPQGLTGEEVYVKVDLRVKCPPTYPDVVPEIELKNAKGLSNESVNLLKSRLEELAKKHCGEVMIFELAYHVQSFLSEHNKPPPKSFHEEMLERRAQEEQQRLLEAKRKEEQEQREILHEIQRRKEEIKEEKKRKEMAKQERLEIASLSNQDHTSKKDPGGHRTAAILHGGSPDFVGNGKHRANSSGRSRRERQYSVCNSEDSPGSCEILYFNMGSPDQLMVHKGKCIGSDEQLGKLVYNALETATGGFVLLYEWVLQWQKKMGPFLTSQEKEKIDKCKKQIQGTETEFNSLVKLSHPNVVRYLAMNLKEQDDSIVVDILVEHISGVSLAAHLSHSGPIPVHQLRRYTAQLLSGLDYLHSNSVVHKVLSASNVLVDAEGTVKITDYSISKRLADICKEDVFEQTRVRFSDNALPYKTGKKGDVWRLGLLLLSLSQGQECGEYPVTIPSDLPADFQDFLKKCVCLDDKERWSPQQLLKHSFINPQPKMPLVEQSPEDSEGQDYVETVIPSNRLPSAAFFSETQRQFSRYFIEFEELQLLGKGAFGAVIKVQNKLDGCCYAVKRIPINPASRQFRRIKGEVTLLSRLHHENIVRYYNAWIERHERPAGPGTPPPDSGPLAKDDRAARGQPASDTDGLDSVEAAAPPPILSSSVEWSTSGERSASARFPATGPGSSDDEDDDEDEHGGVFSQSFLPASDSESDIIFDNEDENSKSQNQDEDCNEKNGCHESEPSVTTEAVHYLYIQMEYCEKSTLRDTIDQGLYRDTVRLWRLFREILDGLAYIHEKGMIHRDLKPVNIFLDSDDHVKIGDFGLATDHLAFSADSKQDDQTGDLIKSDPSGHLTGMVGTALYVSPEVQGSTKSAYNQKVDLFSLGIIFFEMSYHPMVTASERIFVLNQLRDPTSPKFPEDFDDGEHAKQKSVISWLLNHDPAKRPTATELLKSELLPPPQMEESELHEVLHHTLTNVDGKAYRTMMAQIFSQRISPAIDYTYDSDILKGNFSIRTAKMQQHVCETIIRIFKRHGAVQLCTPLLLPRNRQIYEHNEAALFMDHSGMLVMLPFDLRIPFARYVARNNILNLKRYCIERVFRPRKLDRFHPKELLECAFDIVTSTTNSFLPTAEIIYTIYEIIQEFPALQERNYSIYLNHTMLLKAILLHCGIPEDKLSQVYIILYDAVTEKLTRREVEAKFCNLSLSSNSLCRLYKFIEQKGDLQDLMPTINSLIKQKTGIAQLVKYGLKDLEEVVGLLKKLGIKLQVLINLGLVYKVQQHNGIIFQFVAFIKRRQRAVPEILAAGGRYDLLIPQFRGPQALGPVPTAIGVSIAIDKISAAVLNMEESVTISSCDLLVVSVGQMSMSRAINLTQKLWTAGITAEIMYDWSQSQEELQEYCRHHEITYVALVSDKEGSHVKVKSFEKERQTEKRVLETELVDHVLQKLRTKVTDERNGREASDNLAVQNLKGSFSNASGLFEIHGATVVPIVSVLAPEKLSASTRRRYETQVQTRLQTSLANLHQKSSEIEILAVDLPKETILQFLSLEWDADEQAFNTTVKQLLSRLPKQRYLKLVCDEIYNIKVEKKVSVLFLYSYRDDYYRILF

SMILES | IC50 [nM]
Cc1cnc(Nc2cc(C)n(C)n2)nc1-c1c[nH]c2c(NC(=O)CN3C[C@@H](Oc4ccnc(NC5CC5)n4)C[C@H]3CN)cccc12 [Example 59, 2-((2S,4S)-2-(aminomethyl)-4-((2-(cyclopropylamino)pyrimidin-4-yl)oxy)pyrrolidin-1-yl)-N-(3-(2-((1,5-dimethyl-1H-pyrazol-3-yl)amino)-5-methylpyrimidin-4-yl)-1H-indol-7-yl)acetamide] | < 10
Cc1cnc(Nc2cc(C)n(C)n2)nc1-c1c[nH]c2c(NC(=O)CN3CC[C@H](Oc4ccnc(NC5CC5)n4)C3=O)cccc12 [Example 60, (S)-2-(3-((2-(cyclopropylamino)pyrimidin-4-yl)oxy)-2-oxopyrrolidin-1-yl)-N-(3-(2-((1,5-dimethyl-1H-pyrazol-3-yl)amino)-5-methylpyrimidin-4-yl)-1H-indol-7-yl)acetamide] | 10 to 100
Cc1cnc(Nc2cc(C)n(C)n2)nc1-c1c[nH]c2c(NC(=O)CN3C[C@@H](Oc4ccnc(NC5CC5)n4)CC3=O)cccc12 [Example 61, (S)-2-(4-((2-(cyclopropylamino)pyrimidin-4-yl)oxy)-2-oxopyrrolidin-1-yl)-N-(3-(2-((1,5-dimethyl-1H-pyrazol-3-yl)amino)-5-methylpyrimidin-4-yl)-1H-indol-7-yl)acetamide] | < 10
Cc1cnc(Nc2cc(C)n(C)n2)nc1-c1c[nH]c2c(NC(=O)CN3CC[C@H](C(=O)N4CCNC(=O)C4)C3)cccc12 [Example 62, (S)-N-(3-(2-((1,5-dimethyl-1H-pyrazol-3-yl)amino)-5-methylpyrimidin-4-yl)-1H-indol-7-yl)-2-(3-(3-oxopiperazine-1-carbonyl)pyrrolidin-1-yl)acetamide] | 100 to 1000
Cc1cnc(Nc2cc(C)n(C)n2)nc1-c1c[nH]c2c(NC(=O)CN3CC[C@H](C(=O)N4CCOCC4)C3)cccc12 [Example 63, (S)-N-(3-(2-((1,5-dimethyl-1H-pyrazol-3-yl)amino)-5-methylpyrimidin-4-yl)-1H-indol-7-yl)-2-(3-(morpholine-4-carbonyl)pyrrolidin-1-yl)acetamide] | 100 to 1000
Cc1cnc(Nc2cc(C)n(C)n2)nc1-c1c[nH]c2c(NC(=O)CN3CC[C@H](C(=O)N4CCSCC4)C3)cccc12 [Example 64, (S)-N-(3-(2-((1,5-dimethyl-1H-pyrazol-3-yl)amino)-5-methylpyrimidin-4-yl)-1H-indol-7-yl)-2-(3-(thiomorpholine-4-carbonyl)pyrrolidin-1-yl)acetamide] | 10 to 100
Cc1cnc(Nc2cc(C)n(C)n2)nc1-c1c[nH]c2c(NC(=O)CN3CC[C@@H](C(=O)N4CCN(C)CC4)C3)cccc12 [Example 65, (R)-N-(3-(2-((1,5-dimethyl-1H-pyrazol-3-yl)amino)-5-methylpyrimidin-4-yl)-1H-indol-7-yl)-2-(3-(4-methylpiperazine-1-carbonyl)pyrrolidin-1-yl)acetamide] | 100 to 1000
Cc1cnc(Nc2cc(C)n(C)n2)nc1-c1c[nH]c2c(NC(=O)CN3CC[C@@H](C(=O)N4CCNC(=O)C4)C3)cccc12 [Example 66, (R)-N-(3-(2-((1,5-dimethyl-1H-pyrazol-3-yl)amino)-5-methylpyrimidin-4-yl)-1H-indol-7-yl)-2-(3-(3-oxopiperazine-1-carbonyl)pyrrolidin-1-yl)acetamide] | 100 to 1000
Cc1cnc(Nc2cc(C)n(C)n2)nc1-c1c[nH]c2c(NC(=O)CN3CC[C@@H](C(=O)N4CCOCC4)C3)cccc12 [Example 67, (R)-N-(3-(2-((1,5-dimethyl-1H-pyrazol-3-yl)amino)-5-methylpyrimidin-4-yl)-1H-indol-7-yl)-2-(3-(morpholine-4-carbonyl)pyrrolidin-1-yl)acetamide] | 100 to 1000
Cc1cnc(Nc2cc(C)n(C)n2)nc1-c1c[nH]c2c(NC(=O)CN3CC[C@@H](C(=O)N4CCSCC4)C3)cccc12 [Example 68, (R)-N-(3-(2-((1,5-dimethyl-1H-pyrazol-3-yl)amino)-5-methylpyrimidin-4-yl)-1H-indol-7-yl)-2-(3-(thiomorpholine-4-carbonyl)pyrrolidin-1-yl)acetamide] | 10 to 100
Cc1cnc(Nc2cc(C)n(C)n2)nc1-c1c[nH]c2c(NC(=O)CN3CC[C@H](C(=O)N4CC=CCC4)C3)cccc12 [Example 69, (S)-N-(3-(2-((1,5-dimethyl-1H-pyrazol-3-yl)amino)-5-methylpyrimidin-4-yl)-1H-indol-7-yl)-2-(3-(1,2,3,6-tetrahydropyridine-1-carbonyl)pyrrolidin-1-yl)acetamide] | 10 to 100
Cc1cnc(Nc2cc(C)n(C)n2)nc1-c1c[nH]c2c(NC(=O)CN3CCC(O)C3)cccc12 (stereo not shown) [Example 70, N-(3-(2-((1,5-dimethyl-1H-pyrazol-3-yl)amino)-5-methylpyrimidin-4-yl)-1H-indol-7-yl)-2-(3-hydroxypyrrolidin-1-yl)acetamide] | 10 to 100
Cc1cnc(Nc2cc(C)n(C)n2)nc1-c1c[nH]c2c(NC(=O)CN3CC[C@@H](O)C3)cccc12 [Example 71, (R)-N-(3-(2-((1,5-dimethyl-1H-pyrazol-3-yl)amino)-5-methylpyrimidin-4-yl)-1H-indol-7-yl)-2-(3-hydroxypyrrolidin-1-yl)acetamide] | 10 to 100
Cc1cnc(Nc2cc(C)n(C)n2)nc1-c1c[nH]c2c(NC(=O)CN3CC[C@H](O)C3)cccc12 [Example 72, (S)-N-(3-(2-((1,5-dimethyl-1H-pyrazol-3-yl)amino)-5-methylpyrimidin-4-yl)-1H-indol-7-yl)-2-(3-hydroxypyrrolidin-1-yl)acetamide] | 10 to 100

Further lines, results first:

IC50 [nM] | SMILES
10 to 100 | Cc1cnc(Nc2cc(C)n(C)n2)nc1-c1c[nH]c2c(NC(=O)CN3CC[C@H](Oc4ccccn4)C3)cccc12 [Example 73, (S)-N-(3-(2-((1,5-dimethyl-1H-pyrazol-3-yl)amino)-5-methylpyrimidin-4-yl)-1H-indol-7-yl)-2-(3-(pyridin-2-yloxy)pyrrolidin-1-yl)acetamide]
< 10 | Cc1cnc(Nc2cc(C)n(C)n2)nc1-c1c[nH]c2c(NC(=O)CN3CCC(Oc4ccncc4)C3)cccc12 (stereo not shown) [Example 76, N-(3-(2-((1,5-dimethyl-1H-pyrazol-3-yl)amino)-5-methylpyrimidin-4-yl)-1H-indol-7-yl)-2-(3-(pyridin-4-yloxy)pyrrolidin-1-yl)acetamide]
10 to 100 | Cc1cnc(Nc2cc(C)n(C)n2)nc1-c1c[nH]c2c(NC(=O)CN3CC[C@@H](Oc4ccncc4)C3)cccc12 [Example 77, (R)-N-(3-(2-((1,5-dimethyl-1H-pyrazol-3-yl)amino)-5-methylpyrimidin-4-yl)-1H-indol-7-yl)-2-(3-(pyridin-4-yloxy)pyrrolidin-1-yl)acetamide]
< 10 | Cc1cnc(Nc2cc(C)n(C)n2)nc1-c1c[nH]c2c(NC(=O)CN3CC[C@H](Oc4ccncn4)C3)cccc12 [Example 78, (S)-N-(3-(2-((1,5-dimethyl-1H-pyrazol-3-yl)amino)-5-methylpyrimidin-4-yl)-1H-indol-7-yl)-2-(3-(pyrimidin-4-yloxy)pyrrolidin-1-yl)acetamide]
< 10 | Cc1cnc(Nc2cc(C)n(C)n2)nc1-c1c[nH]c2c(NC(=O)CN3CC[C@H](Oc4cnccn4)C3)cccc12 [Example 79, (S)-N-(3-(2-((1,5-dimethyl-1H-pyrazol-3-yl)amino)-5-methylpyrimidin-4-yl)-1H-indol-7-yl)-2-(3-(pyrazin-2-yloxy)pyrrolidin-1-yl)acetamide]
100 to 1000 | Cc1cnc(Nc2cc(C)n(C)n2)nc1-c1c[nH]c2c(NC(=O)CN3CC[C@H](Oc4ccc(F)cc4)C3)cccc12 [Example 80, (S)-N-(3-(2-((1,5-dimethyl-1H-pyrazol-3-yl)amino)-5-methylpyrimidin-4-yl)-1H-indol-7-yl)-2-(3-(4-fluorophenoxy)pyrrolidin-1-yl)acetamide]
100 to 1000 | Cc1cnc(Nc2cc(C)n(C)n2)nc1-c1c[nH]c2c(NC(=O)CN3CC[C@H](Oc4cccc(F)c4)C3)cccc12 [Example 81, (S)-N-(3-(2-((1,5-dimethyl-1H-pyrazol-3-yl)amino)-5-methylpyrimidin-4-yl)-1H-indol-7-yl)-2-(3-(3-fluorophenoxy)pyrrolidin-1-yl)acetamide]
100 to 1000 | Cc1cnc(Nc2cc(C)n(C)n2)nc1-c1c[nH]c2c(NC(=O)CN3CC[C@H](Oc4ccc(Cl)cc4)C3)cccc12 [Example 82, (S)-2-(3-(4-chlorophenoxy)pyrrolidin-1-yl)-N-(3-(2-((1,5-dimethyl-1H-pyrazol-3-yl)amino)-5-methylpyrimidin-4-yl)-1H-indol-7-yl)acetamide]
10 to 100 | Cc1cnc(Nc2cc(C)n(C)n2)nc1-c1c[nH]c2c(NC(=O)CN3CC[C@H](Oc4ccc(F)cc4F)C3)cccc12 [Example 83, (S)-2-(3-(2,4-difluorophenoxy)pyrrolidin-1-yl)-N-(3-(2-((1,5-dimethyl-1H-pyrazol-3-yl)amino)-5-methylpyrimidin-4-yl)-1H-indol-7-yl)acetamide]
100 to 1000 | Cc1cnc(Nc2cc(C)n(C)n2)nc1-c1c[nH]c2c(NC(=O)CN3CC[C@H](Oc4ccc(F)c(F)c4)C3)cccc12 [Example 84, (S)-2-(3-(3,4-difluorophenoxy)pyrrolidin-1-yl)-N-(3-(2-((1,5-dimethyl-1H-pyrazol-3-yl)amino)-5-methylpyrimidin-4-yl)-1H-indol-7-yl)acetamide]
100 to 1000 | Cc1cnc(Nc2cc(C)n(C)n2)nc1-c1c[nH]c2c(NC(=O)CN3CC[C@H](Oc4ccc(F)cc4Cl)C3)cccc12 [Example 85]
100 to 1000 | Cc1cnc(Nc2cc(C)n(C)n2)nc1-c1c[nH]c2c(NC(=O)CN3CC[C@H](Oc4cc(F)cc(F)c4)C3)cccc12 [Example 86]
10 to 100 | Cc1cnc(Nc2cc(C)n(C)n2)nc1-c1c[nH]c2c(NC(=O)CN3CC[C@H](Oc4ccc(F)c(N)c4)C3)cccc12 [Example 87, (S)-2-(3-(3-amino-4-fluorophenoxy)pyrrolidin-1-yl)-N-(3-(2-((1,5-dimethyl-1H-pyrazol-3-yl)amino)-5-methylpyrimidin-4-yl)-1H-indol-7-yl)acetamide]
100 to 1000 | CCN(CC)c1cccc(O[C@H]2CCN(CC(=O)Nc3cccc4c(-c5nc(Nc6cc(C)n(C)n6)ncc5C)c[nH]c34)C2)c1 [Example 88]
